Data on seven molecules can be found in PMC5834492, “Antimycobacterial drug discovery using Mycobacteria-infected amoebae identifies anti-infectives and new molecular targets” (Scientific Reports, 2018).

Data set [1] concerns M. marinum in A. castellanii. It counts as cell-based, Mycobacterium marinum.
Data set [2] relates to M. marinum in BV2 microglial cells. Format: cell-based, Mycobacterium marinum.
The subject of a further data set is Mtb H37Rv. Also on record: method as in Sorrentino et al, 2015. The conditions noted are these: ref Sorrentino et al, 2015; cited from earlier work.
In the next data set the test system is Mtb H37Rv in THP-1. Also noted: method as in Sorrentino et al, 2015. The settings on record: ref Sorrentino et al, 2015, cited from earlier work; for Intracelullar MIC90 in THP-1: THP1 / Mtb H37Rv infection assay; for Extracellular MIC90/ Inracellular MIC90: ratio.
The test system of a further data set is M. marinum luxCDABE. Format: cell-based, Mycobacterium marinum.

Molecules are shown by their SMILES.

In the case of `O=C(CCC1CCCCC1)Nc1cccc(-c2nnc(-c3ccco3)o2)c1` [GSK937213A], the “Intracellular infection assays: A. castellanii / M. marinum” value in data set [1] is reported as 1.06. In data set [2], the “Intracellular infection assays: BV2 / M. marinum” value turned out to be 1.14. Also, the “Extracellular MIC90” value with Mtb H37Rv is given as 6.1 µM. The “Growth inhibition / Cytotoxicity assays: BV2 cells” value with BV2 cells is reported as “False”. In the data set with Mtb H37Rv in THP-1, the “Intracelullar MIC90 in THP-1” value is 0.61 µM and the “Extracellular MIC90/ Inracellular MIC90” value is 10. Moreover, the “Growth inhibition / Cytotoxicity assays: D. discoideum GFP-ABD” value in the data set with D. discoideum GFP-ABD came to 1.19. In addition, in the data set with M. marinum luxCDABE, the “Antibiotic assays: M. marinum luxCDABE” value turned out to be 0.00.
Regarding `COc1ccc2nc(C)cc(OCC(=O)NCc3ccccc3)c2c1` [GSK463114A], in data set [1], the “Intracellular infection assays: A. castellanii / M. marinum” value worked out at 1.10. In addition, the “Intracellular infection assays: BV2 / M. marinum” value in data set [2] turned out to be 1.37. The “Extracellular MIC90” value in the data set on Mtb H37Rv is on record as 1.1 µM. In addition, in the data set on BV2 cells, the “Growth inhibition / Cytotoxicity assays: BV2 cells” value is given as “False”. Also, in the data set with Mtb H37Rv in THP-1, the “Intracelullar MIC90 in THP-1” value is listed as 5.55 µM and the “Extracellular MIC90/ Inracellular MIC90” value is recorded as 0.2. Also, the “Growth inhibition / Cytotoxicity assays: D. discoideum GFP-ABD” value in the data set on D. discoideum GFP-ABD is given as 0.95. In the data set on M. marinum luxCDABE, the “Antibiotic assays: M. marinum luxCDABE” value was 0.00.
Consider `O=C(C1CCN(c2nnc(-n3cccc3)s2)CC1)N1CCC(Cc2ccccc2)CC1` [GSK2032710A], for which the “Intracellular infection assays: A. castellanii / M. marinum” value in data set [1] is given as 1.06. For the same molecule, the “Intracellular infection assays: BV2 / M. marinum” value in data set [2] stood at 1.25. Further, the “Extracellular MIC90” value with Mtb H37Rv is 4.2 µM. Besides, in the data set on BV2 cells, the “Growth inhibition / Cytotoxicity assays: BV2 cells” value is on record as “False”. For the same molecule, in the data set with Mtb H37Rv in THP-1, the “Intracelullar MIC90 in THP-1” value is 0.61 µM and the “Extracellular MIC90/ Inracellular MIC90” value was 6.88. Further, the “Growth inhibition / Cytotoxicity assays: D. discoideum GFP-ABD” value in the data set with D. discoideum GFP-ABD came to 1.04. Moreover, the “Antibiotic assays: M. marinum luxCDABE” value in the data set on M. marinum luxCDABE came to 0.00.
Consider `CN1CCN(c2cc(-c3ccc(F)cc3)nc(-c3ccncc3)n2)CC1` [GSK276001A], for which, in data set [1], the “Intracellular infection assays: A. castellanii / M. marinum” value came to 1.04. Besides, in data set [2], the “Intracellular infection assays: BV2 / M. marinum” value was determined as 1.11. Moreover, in the data set on Mtb H37Rv, the “Extracellular MIC90” value is listed as 7.4 µM. In the data set on BV2 cells, the “Growth inhibition / Cytotoxicity assays: BV2 cells” value is given as “False”. In the data set with Mtb H37Rv in THP-1, the “Intracelullar MIC90 in THP-1” value is listed as 50 µM and the “Extracellular MIC90/ Inracellular MIC90” value is recorded as 0.15. In the data set with D. discoideum GFP-ABD, the “Growth inhibition / Cytotoxicity assays: D. discoideum GFP-ABD” value came to 0.65. For the same molecule, in the data set with M. marinum luxCDABE, the “Antibiotic assays: M. marinum luxCDABE” value stood at 0.63.
Take `Cc1ccc(CNC(=O)c2cnn3c2NC(c2ccc(C)cc2)CC3C(F)F)cc1` (centres unmarked) [GSK1180781A]: the “Intracellular infection assays: A. castellanii / M. marinum” value in data set [1] is reported as 1.14. For the same molecule, in data set [2], the “Intracellular infection assays: BV2 / M. marinum” value is recorded as 1.23. For the same molecule, the “Extracellular MIC90” value with Mtb H37Rv was 1.2 µM. Also, in the data set on BV2 cells, the “Growth inhibition / Cytotoxicity assays: BV2 cells” value is on record as “False”. For the same molecule, in the data set on Mtb H37Rv in THP-1, the “Intracelullar MIC90 in THP-1” value is recorded as 0.21 µM and the “Extracellular MIC90/ Inracellular MIC90” value was 5.71. Further, the “Growth inhibition / Cytotoxicity assays: D. discoideum GFP-ABD” value in the data set on D. discoideum GFP-ABD amounted to 1.05. In the data set on M. marinum luxCDABE, the “Antibiotic assays: M. marinum luxCDABE” value turned out to be 1.00.
Turning to `COc1ccc(-c2ccc(Nc3cccc(S(=O)(=O)CCNCCc4cccs4)c3)nc2)cn1` [GSK1826089A], the “Intracellular infection assays: A. castellanii / M. marinum” value in data set [1] came to 1.17. Further, the “Intracellular infection assays: BV2 / M. marinum” value in data set [2] came out at 1.09. For the same molecule, the “Extracellular MIC90” value in the data set with Mtb H37Rv is 7.6 µM. Also, the “Growth inhibition / Cytotoxicity assays: BV2 cells” value in the data set on BV2 cells is on record as “False”. Besides, in the data set on Mtb H37Rv in THP-1, the “Intracelullar MIC90 in THP-1” value was 1.85 µM and the “Extracellular MIC90/ Inracellular MIC90” value was 4.11. Besides, the “Growth inhibition / Cytotoxicity assays: D. discoideum GFP-ABD” value in the data set on D. discoideum GFP-ABD stood at 0.69. In the data set with M. marinum luxCDABE, the “Antibiotic assays: M. marinum luxCDABE” value turned out to be 0.085.
For the molecule `O=C(Nc1nnc(-c2ccc(Cl)cc2)o1)c1cccc(C(F)(F)F)c1` [GSK130506A], the “Intracellular infection assays: A. castellanii / M. marinum” value in data set [1] was 1.05. For the same molecule, the “Intracellular infection assays: BV2 / M. marinum” value in data set [2] was found to be 1.46. In addition, the “Extracellular MIC90” value with Mtb H37Rv is recorded as 5.6 µM. For the same molecule, the “Growth inhibition / Cytotoxicity assays: BV2 cells” value in the data set on BV2 cells was “False”. In the data set on Mtb H37Rv in THP-1, the “Intracelullar MIC90 in THP-1” value is 16.65 µM and the “Extracellular MIC90/ Inracellular MIC90” value is 0.34. In addition, the “Growth inhibition / Cytotoxicity assays: D. discoideum GFP-ABD” value in the data set with D. discoideum GFP-ABD is on record as 1.07. The “Antibiotic assays: M. marinum luxCDABE” value in the data set with M. marinum luxCDABE amounted to 0.00.
